Experimental data as given in patent US20250270513A1, “METHOD FOR PRODUCING CULTURED TISSUE, AND PREPARATION FOR EXTERNAL APPLICATION” (National University Corporation Ehime University, priority 2019, published 2025).

Key:
[1] = tested on: EREG, ARG2, CCL2, IL1RN, PGF, SPP1, VEGFA, AREG and DPT mRNA; assay: qPCR of genes in monolayer fibroblasts, 24 hours (Test Example 3-3); assay type: cell-based, human; conditions: group treated with hyaluronic acid oligosaccharides (HA oligo)
Experimental: In the same manner as in Test Example 3-2, NHDF was cultured in 1% FCS and 1% ABAM-containing DMEM medium containing 0, 30, or 100 mg/mL trehalose or hyaluronic acid oligosaccharide 4mer (HA4) (product code 11006, manufactured by Cosmo Bio Co., Ltd.) for 24 hours, and RNA was recovered from the cells. Also, as a control, RNA was recovered from fibroblasts before treatment (0 h in FIG. 9). The obtained sample was subjected to the same operation as in Test Example 3-2, and qPCR for genes EREG, ARG2, CCL2, IL1RN, PGF, SPP1, VEGFA, AREG and DPT was performed. GAPDH was used as a reference gene.

[2] = tested on: human normal skin keratinocytes on collagen gel containing normal human skin fibroblasts (NHDF); assay: Three-dimensional cultured skin on a sugar-containing dermal cell structure (Test Example 1); assay type: cell-based; conditions: 30 mg/mL sugar added instead of trehalose to collagen gel containing fibroblasts
Experimental: Subsequently, about 1 mL of the gel obtained was poured into a transwell-collagen coated insert (catalog number: 3492, manufactured by Costar; pore size: 3.0 μm, surface area: 4.67 cm^2), which is a cell culture insert, and allowed to stand in an incubator for 5 minutes or more. 5 mL of DMEM containing 10 v/v % FCS and 1 v/v % ABAM (Antibiotics-Antimycotic solution, 100×, manufactured by ThermoFisher Scientific Inc.) in which normal human skin fibroblasts (NHDF, manufactured by Cambrex Corporation) were suspended at a cell density of 5×10^5 cells/mL was added to 29 mL of the gel solution I. About 3.5 mL of a gel solution containing the cells was added to the cell culture insert, and the mixture was allowed to stand in a 37° C. incubator for 30 minutes to gel.
• (2) Next, the collagen gel (layered dermal cell structure) containing NHDF was pre-cultured for 5 days using a DMEM medium containing 50 μg/ml ascorbic acid, 10 v/v % FCS, and 1 v/v % ABAM. Next, human normal skin keratinocytes suspended in MCDB medium were seeded on the collagen gel surface so as to be 1.28×10^5 cells/cm^2, and a medium obtained by mixing equal amounts of MCDB Type-II medium (Growth Medium 2 in JP-B2-3066624) and EGM was added to an external liquid of the cell culture insert and the inside of the insert, followed by culturing at 37° C. for 2 days.
• (3) The medium was replaced with a cornification medium (CM medium), and the cell culture insert was placed such that a porous membrane of the cell culture insert was located at a gas-liquid interface of the cornification medium. In this state, the cells were subjected to gas-liquid interface culture at 37° C. for 7 to 14 days to induce differentiation, thereby obtaining three-dimensional cultured skin. The medium was replaced every two days from the start of the culture.

In the case of “hyaluronic acid oligosaccharide 4mer [hyaluronic acid oligosaccharides, reference compound]”, the “increase in mRNA expression level of genes EREG, ARG2, CCL2, IL1RN, PGF, SPP1, VEGFA, AREG and DPT” value [1] is reported as “not observed”.

`OC[C@H]1O[C@@](CO)(O[C@H]2O[C@H](CO)[C@@H](O)[C@H](O)[C@H]2O)[C@@H](O)[C@@H]1O` [sucrose, reference compound] was tested, and the “formation of epithelial tissue layer” value [2] was “no epithelial tissue layer was formed”.

In the case of `O=C(CO)[C@@H](O)[C@H](O)[C@H](O)CO` [fructose, reference compound], the “formation of epithelial tissue layer” value [2] is reported as “no epithelial tissue layer was formed”.
